Activity calls are given as the source filed them. No rule for the calls is given here.
Molecular target: Influenza A virus M2 proton channel (A/TW/4845/1999 H1N1)
Experiment: NMR binding screen, influenza A virus M2 proton channel, Kd (AID 1549)
Details: M2 protein

Compound | Kd
CC(=O)Nc1ccc(C)cc1NC(C)=O | > 4 mM (inactive)
Nc1ncnc2c1ncn2CCN1CCCCC1 | > 4 mM (inactive)
Cc1nc(-c2ccccc2)sc1CN | > 4 mM (inactive)
CC(=O)O[C@H]1CC[C@@]2(C)C(C[C@@H](OC(C)=O)[C@@]3(C)C4=CC(=O)O[C@@H](c5ccoc5)[C@]4(C)CCC23)C1(C)C (stereo partly specified) | > 4 mM (inactive)
C[C@@H]1O[C@@H](O[C@H]2C[C@@H](O)[C@]3(CO)C4C(CC[C@]3(O)C2)[C@@]2(O)CC[C@H](C3=CC(=O)OC3)[C@@]2(C)C[C@H]4O)[C@H](O)[C@H](O)[C@H]1O (stereo partly specified) | > 4 mM (inactive)
Nc1nc(SCc2ccc3c(c2)OCCO3)n[nH]1 | > 4 mM (inactive)
O=c1ccc2ccccc2o1 | > 4 mM (inactive)
Cc1cn(C(=O)CN2C(=O)c3ccccc3C2=O)c(C)n1 | > 4 mM (inactive)
NC(=O)c1ccc(NC(=O)c2ccco2)cc1 | > 4 mM (inactive)
O=[N+]([O-])c1cccc(CN2CCC(O)CC2)c1 | > 4 mM (inactive)
O=C(Nc1nnc(-c2ccco2)o1)c1ccc([N+](=O)[O-])o1 | > 4 mM (inactive)
CN1CCN(CC(=O)NC2CCCCC2)CC1 | > 4 mM (inactive)
O=C(O)c1cccnc1N1CCOCC1 | > 4 mM (inactive)
CC1=NN(c2ccc(C)cc2)C(=O)C1 | > 4 mM (inactive)
O=C1CSC(c2ccccc2)N1 (stereo unspecified) | > 4 mM (inactive)
CC(=O)N1CCN(S(=O)(=O)c2ccccc2)CC1 | > 4 mM (inactive)
NCc1ccc(-n2cccc2)cc1 | > 4 mM (inactive)
CC(C)c1ccc(NC(=O)C(N)=O)cc1 | > 4 mM (inactive)
Cc1ccc(C(O)c2nccn2C)o1 (stereo unspecified) | > 4 mM (inactive)
C=C1CCC(=O)C(C)CCC2C1CC2(C)C (stereo unspecified) | > 4 mM (inactive)
Cc1nc2nc(Cc3ccccc3)[nH]n2c(=O)c1Cl | > 4 mM (inactive)
CC(=O)Nc1cccc(Cn2cccn2)c1 | > 4 mM (inactive)
C[n+]1cc2c3c(ccc2c2ccc4cc5c(cc4c21)OCO5)OCO3 | > 4 mM (inactive)

Compound | Kd
C[C@H]1[C@H](C)CC[C@]2(CO)CC[C@]3(C)C(=CCC4[C@@]5(C)CC[C@H](O)C(C)(C)C5CC[C@]43C)[C@H]12 (stereo partly specified) | > 4 mM (inactive)
O[C@H]1C=C2CCN3Cc4cc5c(cc4C(C23)[C@@H]1O)OCO5 (stereo partly specified) | > 4 mM (inactive)
O=c1c2ccccc2ncn1C1CCCCC1 | > 4 mM (inactive)
O=S1(=O)CCC(NCc2ccccc2)C1 (stereo unspecified) | > 4 mM (inactive)
Cc1ccccc1-n1c(N)cc(=O)[nH]c1=S | > 4 mM (inactive)
CC[C@H](/C=C/C(C)C1CCC2C3CCC4=CC(=O)CC[C@]4(C)C3CC[C@]12C)C(C)C (stereo partly specified) | > 4 mM (inactive)
Cc1n[nH]c(=S)n1-c1ccc(C(=O)O)cc1 | > 4 mM (inactive)
CC[C@H]1CN2CCC1C[C@@H]2[C@@H](O)c1ccnc2ccc(OC)cc12 (stereo partly specified) | > 4 mM (inactive)
COc1cc([C@@H]2c3cc4c(cc3C(OC3O[C@@H]5COC(C)O[C@H]5[C@H](O)[C@H]3O)C3COC(=O)[C@@H]32)OCO4)cc(OC)c1O (stereo partly specified) | > 4 mM (inactive)
Cn1cccc1C(=S)N1CCOCC1 | > 4 mM (inactive)
COC(=O)c1scc(S(C)(=O)=O)c1-n1cccc1 | > 4 mM (inactive)
CC(=O)c1c(C)nc(C)nc1NC(=O)C(C)C | > 4 mM (inactive)
O=C(CSc1ncccn1)NCc1ccco1 | > 4 mM (inactive)
Cn1cnnc1SCCCNC(=O)Nc1ncccn1 | > 4 mM (inactive)
OCc1ccc(-n2cncn2)cc1 | > 4 mM (inactive)
CS(=O)(=O)c1nncn1-c1ccccc1 | > 4 mM (inactive)
COc1ccc2c(=O)c(CC(=O)O)coc2c1 | > 4 mM (inactive)
OC[C@H]1O[C@@H](Oc2ccc(O)cc2)[C@H](O)[C@@H](O)[C@@H]1O | > 4 mM (inactive)
NCc1cccc(-n2cccc2)c1 | > 4 mM (inactive)
CCOC(=O)C1CCN(c2ncnc3nc[nH]c23)CC1 | > 4 mM (inactive)
CC(=O)Nc1cc2c(cc1C(=O)C(C)C)OCCO2 | > 4 mM (inactive)
CC(=O)Nc1cccc(NC(=O)c2cccnc2)c1 | > 4 mM (inactive)
CC1(C)C2CC(=O)[C@]3(C)C(CC[C@@]4(C)[C@H](c5ccoc5)OC(=O)C5OC543)[C@@]2(C)[C@@H](O)C[C@H]1O (stereo partly specified) | > 4 mM (inactive)

Compound | Kd
CSc1ccc(/C=c2\sc3ncnn3c2=O)cc1 | > 4 mM (inactive)
O=C1c2ccc(F)cc2C(=O)N1CO | > 4 mM (inactive)
C/C=C(\C)C(=O)OC1[C@@H]2C=C3C(CC[C@]4(C)C3CC(=O)O[C@H]4c3ccoc3)C(C)(C2=O)[C@@H](C(O)C(=O)OC)C1(C)C (stereo partly specified) | > 4 mM (inactive)
O=C(NCc1cccs1)c1nc2ncccn2n1 | > 4 mM (inactive)
Cc1nnc(SCC(=O)NC2CCCC2)[nH]c1=O | > 4 mM (inactive)
Nc1cc(=O)[nH]c(SCC(=O)NC2CCCCC2)n1 | > 4 mM (inactive)
Cc1nccc2c1[nH]c1ccccc12 | > 4 mM (inactive)
NC(=O)C1CCN(c2ccc(Cl)nn2)CC1 | > 4 mM (inactive)
O=C(/C=C/c1ccc(O)c(O)c1)O[C@@H]1C[C@](O)(C(=O)O)C[C@@H](O)[C@H]1O | > 4 mM (inactive)
COC(=O)Cc1csc(N)n1 | > 4 mM (inactive)
CCOC(=O)Cc1cc(=O)n2[nH]c(C)cc2n1 | > 4 mM (inactive)
CCC(=O)Nc1ccc(-c2nn3c(C)nnc3s2)cc1 | > 4 mM (inactive)
CC1CCCN(C/C(O)=C(\C#N)c2nc3ccccc3[nH]2)C1 (stereo unspecified) | > 4 mM (inactive)
Cn1c(=O)n(C)c2nc([N+](=O)[O-])c(Cl)cc21 | > 4 mM (inactive)
CC12OC(=O)CC3C(C)(C)[C@H](O)C=C[C@]3(C)C1CC[C@]1(C)C2=CC(=O)O[C@H]1c1ccoc1 (stereo partly specified) | > 4 mM (inactive)
C[C@H]1OC(O[C@H]2[C@@H](O)CC(O[C@H]3[C@@H](O)C[C@H](O[C@H]4CC[C@]5(C)C6CC[C@]7(C)[C@@H](C8=CC(=O)OC8)[C@@H](O)C[C@]7(O)[C@@H]6CC[C@@H]5C4)O[C@@H]3C)O[C@@H]2C)C[C@H](O)C1O (stereo partly specified) | > 4 mM (inactive)
O=C(Nc1c[nH]c(=O)[nH]c1=O)c1ccccc1F | > 4 mM (inactive)
O=C(O)CNC(=O)c1ccccc1 | > 4 mM (inactive)
COc1c(O)cc(O)cc1O | > 4 mM (inactive)
COc1cc(O)c(C(=O)c2ccccc2)cc1O | > 4 mM (inactive)
Cc1ccc(-c2nc(-c3cccnc3)no2)cc1 | > 4 mM (inactive)
Cn1c(CNc2ccccc2)cc(=O)n(C)c1=O | > 4 mM (inactive)
Cc1nnc(NCc2ccc3c(c2)OCO3)[nH]c1=O | > 4 mM (inactive)

Compound | Kd
Cc1ccc(CNc2ccc(O)cc2)cc1 | > 4 mM (inactive)
CN1C(=O)C2CC=C(Cl)CC2C1=O (stereo unspecified) | > 4 mM (inactive)
CCC1(CC)C(=O)NC(=O)N=C1N | > 4 mM (inactive)
O=c1c(O)c(-c2ccc(O)c(O)c2)oc2cc(O)ccc12 | > 4 mM (inactive)
CN1CCCC1C(=O)O (stereo unspecified) | > 4 mM (inactive)
CC1CCN(C(=O)c2cc3ccccc3o2)CC1 | > 4 mM (inactive)
NCCCCN | > 4 mM (inactive)
NCC(=O)c1ccccc1 | > 4 mM (inactive)
COC(=O)C1CSCC1=O (stereo unspecified) | > 4 mM (inactive)
COc1ccc(-c2c(OC)c3c(OC)c4c(cc3oc2=O)OC(C)(C)C=C4)cc1 | > 4 mM (inactive)
CN1CCc2c(sc(N)c2C#N)C1 | > 4 mM (inactive)
Cc1cc(=O)n2ncn(Cc3ccccc3)c2n1 | > 4 mM (inactive)
Cc1nn(-c2ccccc2)nc1CO | > 4 mM (inactive)
COc1cccc(=O)c2c(C)n(C)c(C)c12 | > 4 mM (inactive)
O=C(c1ccncc1)c1ccc(Br)cc1 | > 4 mM (inactive)
CC1(C)N([O-])c2cc([N+](=O)[O-])ccc2[N+]1=O | > 4 mM (inactive)
O=C(Oc1ccc2c(c1)OCC2=O)c1ccccc1 | > 4 mM (inactive)
O=c1n(-c2cccc(Cl)c2)c(=O)n2n1CCC2 | > 4 mM (inactive)
Cc1cc(O)cc(=O)o1 | > 4 mM (inactive)
O=C(O)C1Cc2ccccc2N1 (stereo unspecified) | > 4 mM (inactive)
O=c1[nH]cc(S(=O)(=O)Nc2ccccc2)c(=O)[nH]1 | > 4 mM (inactive)
O=C(NCCCO)c1ccncc1 | > 4 mM (inactive)
CC(C)(C#N)O[C@@H]1O[C@H](CO)[C@@H](O)[C@H](O)[C@H]1O | > 4 mM (inactive)

Compound | Kd
c1ccc(-c2nc3ccccc3nc2-c2ccccn2)nc1 | > 4 mM (inactive)
O=C1c2ccccc2C(=O)N1CCc1ccccn1 | > 4 mM (inactive)
COc1cc2c(cc1OC)Cc1cc(OC)c(OC)cc1Cc1cc(OC)c(OC)cc1C2 | > 4 mM (inactive)
CC(NC(=O)c1cccnc1)c1ccc2c(c1)OCO2 (stereo unspecified) | > 4 mM (inactive)
O=C1NC(=S)NC(=O)C1=Cc1ccco1 | > 4 mM (inactive)
CCn1cnc2sc(C(=O)O)c(C)c2c1=O | > 4 mM (inactive)
NC(=O)Cn1nc2c3c(cccc3c1=O)-c1ccccc1-2 | > 4 mM (inactive)
COc1cc(OC)c(OC)cc1C=O | > 4 mM (inactive)
CCSc1nc2ccccc2n1CC(N)=O | > 4 mM (inactive)
CS(=O)(=O)N/N=C/c1cccs1 | > 4 mM (inactive)
CN(Cc1nc2ccccc2n1C)C(=O)c1cccs1 | > 4 mM (inactive)
O=C(O)c1cccc(-n2cccc2)c1 | > 4 mM (inactive)
O=C1C2C3CCC(O3)C2C(=O)N1c1cccc(F)c1 (stereo unspecified) | > 4 mM (inactive)
CC1(C)C(=O)C=C[C@@]2(C)C1CC(=O)[C@]1(C)C2CC[C@@]2(C)[C@H](c3ccoc3)OC(=O)[C@H]3O[C@]321 (stereo partly specified) | > 4 mM (inactive)
OCc1ccc2nonc2c1 | > 4 mM (inactive)
CC(C)=CCOc1c2occc2cc2ccc(=O)oc12 | > 4 mM (inactive)
Cc1nc2sc3c(c2c(=N)n1N)CC(C)(C)OC3 | > 4 mM (inactive)
O=C(O[C@@H]1Cc2c(O)cc(O)cc2O[C@@H]1c1cc(O)c(O)c(O)c1-c1c([C@H]2Oc3cc(O)cc(O)c3C[C@H]2O)cc(O)c(O)c1O)c1cc(O)c(O)c(O)c1 | > 4 mM (inactive)
Nc1ccc(-n2cccc2)cc1 | > 4 mM (inactive)

From PubChem BioAssay AID1549 (Sanford-Burnham Center for Chemical Genomics, 2009)
